According to patent US20070280924A1, “Pharmaceutical Preparations For And Treatment Of Ocular Surface and Other Disorders” (priority 2004, published 2007):

Assays:
[1] = for comparison; cited from earlier work
[2] = tested on: human corneal epithelial cell lines (HCE-T and CEPI-17-CI.4) and human conjunctival epithelial cells
Description: Hypromellose, Carbopol or sodium hyaluronate were used to supplement an ocular surface medium at concentrations ranging from 0.0001% to 0.4%. The pH and osmolarity of all of the resultant formulations were controlled and adjusted to be within physiological range. The biophysical properties, i.e. viscosity and surface tension, were determined with a rheometer and an electronic manometer. Two human corneal epithelial cell lines (HCE-T and CEPI-17-CI.4) and two human conjunctival epithelial cells were used to investigate cell proliferation, viability and migration in response to the formulations by means of a luminescence based ATP-assay, a calcein AM/EthD-1 assay and a colony dispersion assay.

In the case of O [water], the Surface tension [1] is given as “about 70 mN/m”.

For hypromellose, the Toxicity [2] was “low toxicity”.
